Reference: the RepoRT retention time repository

Assay: Waters ACQUITY UPLC BEH C18, 50 × 2.1 mm, 1.7 µm, 30 °C, 0.3 mL/min, estimated dead time 0.37 min; A: water + 0.3% formic acid; B: acetonitrile; gradient (min/%B) 0.5/5 3.5/20 5.5/25 7/57 8/90
Conditions: stereoisomer not certain

CCC1(O)CCC2C3CCC4=CC(=O)CCC4=C3C=CC21CC (centres undefined)
LC retention time: 7.79 min

CC(C)(C)NCC(O)COc1cccc2c1CCCC2=O (centres undefined)
LC retention time: 4 min

CC(CN1CCOCC1)C(C(=O)N1CCCC1)(c1ccccc1)c1ccccc1 (centres undefined)
LC retention time: 6.97 min

Cc1ccccc1CC(C)N (centres undefined)
LC retention time: 3.25 min

CC(C)NCC(O)c1ccc(NS(C)(=O)=O)cc1 (centres undefined)
LC retention time: 1.58 min

COC(=O)CCc1ccc(OCC(O)CNC(C)C)cc1 (centres undefined)
LC retention time: 4.31 min

OCc1cc(C(O)CNCCCCCCOCCCCc2ccccc2)ccc1O (centres undefined)
LC retention time: 7.12 min

CC(N)Cc1ccccc1 (centres undefined)
LC retention time: 2.37 min

CC(Cc1ccc(O)cc1)NCC(O)c1cc(O)cc(O)c1 (centres undefined)
LC retention time: 2.23 min

CC=CC(=O)N(CC)C(CC)C(=O)N(C)C (centres undefined)
LC retention time: 4.55 min

COc1ccc(CC(C)NCC(O)c2ccc(O)c(NC=O)c2)cc1 (centres undefined)
LC retention time: 3.94 min

CC(=O)Nc1nnc(S(N)(=O)=O)s1
LC retention time: 1.78 min

CC1NCCOC1c1ccccc1 (centres undefined)
LC retention time: 2.51 min

CNC(C)CCC=C(C)C (centres undefined)
LC retention time: 3.6 min

CC(C)(C)NCC(O)COc1cccc2c1CCC(=O)N2 (centres undefined)
LC retention time: 2.65 min

CNC(C)Cc1ccccc1OC (centres undefined)
LC retention time: 3.3 min

c1ccc(CN2CCNCC2)cc1
LC retention time: 0.67 min

CC12CCC(=O)C=C1C=CC1C2CCC2(C)C1CCC21CCC(=O)O1 (centres undefined)
LC retention time: 7.63 min

COc1ccc2c3c1OC1C(O)C=CC4C(C2)N(C)CCC341 (centres undefined)
LC retention time: 2.15 min

C#CC1(O)CCC2C3CCC4=Cc5oncc5CC4(C)C3CCC21C (centres undefined)
LC retention time: 8.13 min

CC12CCC3C(CCC4=CC(=O)C=CC43C)C1CCC(=O)O2 (centres undefined)
LC retention time: 6.56 min

Cc1cc2c(OCC(CNC(C)(C)C)OC(=O)c3ccccc3)cccc2[nH]1 (centres undefined)
LC retention time: 6.95 min

CC1(O)CCC2C3CCC4=CC(=O)CCC4=C3C=CC21C (centres undefined)
LC retention time: 7.12 min

CCCC(Cc1ccccc1)N1CCCC1 (centres undefined)
LC retention time: 5.09 min

CC(N)Cc1ccc(O)cc1 (centres undefined)
LC retention time: 1.17 min

CN1CCC23c4c5ccc(O)c4OC2C(=O)CCC3C1C5 (centres undefined)
LC retention time: 1.48 min

CCC1(c2ccc(N)cc2)CCC(=O)NC1=O (centres undefined)
LC retention time: 2.2 min

CNC(C)Cc1ccccc1 (centres undefined)
LC retention time: 2.59 min

COC(=O)C(c1ccccc1)C1CCCCN1 (centres undefined)
LC retention time: 3.9 min

CC(Cc1ccccc1)N(C)C (centres undefined)
LC retention time: 2.76 min

CC(Cc1ccccc1)[n+]1cc(N=C([O-])Nc2ccccc2)on1 (centres undefined)
LC retention time: 7.25 min

CNC(C)C(O)c1ccccc1 (centres undefined)
LC retention time: 2 min

CC(Cc1ccccc1)N(C)Cc1ccco1 (centres undefined)
LC retention time: 4.46 min

O=C1CC2OCC=C3CN4CCC56c7ccccc7N1C5C2C3CC46 (centres undefined)
LC retention time: 3.01 min

O=C(O)C(c1ccccc1)C1CCCCN1 (centres undefined)
LC retention time: 3.25 min

O=C(CS(=O)C(c1ccccc1)c1ccccc1)NO (centres undefined)
LC retention time: 5.7 min

CNC(C)Cc1ccc2c(c1)OCO2 (centres undefined)
LC retention time: 2.73 min

CC(=O)Oc1c(C)cc(OCC(O)CNC(C)C)c(C)c1C (centres undefined)
LC retention time: 5.62 min

CC(C)NCC(O)COc1cccc2[nH]ccc12 (centres undefined)
LC retention time: 2.74 min

COC12CCC3(CC1C(C)(O)C(C)(C)C)C1Cc4ccc(O)c5c4C3(CCN1CC1CC1)C2O5 (centres undefined)
LC retention time: 6.55 min

CCNC1C2CCC(C2)C1c1ccccc1 (centres undefined)
LC retention time: 4.97 min

CC=CC(=O)N(CCC)C(CC)C(=O)N(C)C (centres undefined)
LC retention time: 5.92 min

C#CCN(C)C(C)Cc1ccccc1 (centres undefined)
LC retention time: 3.38 min

NC(=O)c1ncn(C2OC(CO)C(O)C2O)c1N (centres undefined)
LC retention time: 0.58 min

CCN(CC)C(=O)c1cccnc1
LC retention time: 2.02 min

CC(Cc1ccccc1)NCCC#N (centres undefined)
LC retention time: 2.77 min

CC1C(c2ccccc2)OCCN1C (centres undefined)
LC retention time: 2.55 min

C1CCc2nnnn2CC1
LC retention time: 2.4 min

CNCC(C)c1ccccc1 (centres undefined)
LC retention time: 2.57 min

CC(Cc1ccccc1)N(C)Cc1ccccc1 (centres undefined)
LC retention time: 5.59 min

Nc1nc(N)c2nc(-c3ccccc3)c(N)nc2n1
LC retention time: 3 min

CC(C)NC1CCn2c(=O)[nH]c3cccc(c32)C1O (centres undefined)
LC retention time: 1.43 min

CCCN(CCC)S(=O)(=O)c1ccc(C(=O)O)cc1
LC retention time: 7.56 min

CCN(CC)C(C)C(=O)c1ccccc1 (centres undefined)
LC retention time: 2.73 min

CC(C)(C#N)c1cc(Cn2cncn2)cc(C(C)(C)C#N)c1
LC retention time: 6.91 min

CCNCC(O)c1cccc(O)c1 (centres undefined)
LC retention time: 0.92 min

CN(C)C(=O)Oc1cc(OC(=O)N(C)C)cc(C(O)CNC(C)(C)C)c1 (centres undefined)
LC retention time: 4.59 min

Cc1cc(C)cc(NC(=O)Cc2ccc(OC(C)(C)C(=O)O)cc2)c1
LC retention time: 7.59 min

CC(Cc1ccccc1)NCCn1cnc2c1c(=O)n(C)c(=O)n2C (centres undefined)
LC retention time: 4.01 min

CC(C)=CCN1CCC2(C)c3cc(O)ccc3CC1C2C (centres undefined)
LC retention time: 5.07 min

CN1CCC23c4c5ccc(O)c4OC2C(=O)CCC3(O)C1C5 (centres undefined)
LC retention time: 1.21 min

OC(c1ccccc1)(c1ccccc1)C1CCCCN1 (centres undefined)
LC retention time: 4.75 min

CC1CC2C(C(O)CC3(C)C2CCC3(O)C(=O)CO)C2(C)C=CC(=O)C=C12 (centres undefined)
LC retention time: 6.78 min

CC(C)(C)NCC(O)COc1cccc2c1CC(O)C(O)C2 (centres undefined)
LC retention time: 2.81 min

CC(C)NCC(O)COc1ccc(CCOCC2CC2)cc1 (centres undefined)
LC retention time: 6.11 min

COc1ccccc1OCCNCC(O)COc1cccc2[nH]c3ccccc3c12 (centres undefined)
LC retention time: 6.81 min

CC(N)CCCC(C)(C)O (centres undefined)
LC retention time: 1.29 min

Cc1ccc(CC(C)N)cc1 (centres undefined)
LC retention time: 3.45 min

CC12C=CC(=O)C=C1CCC1C2C(=O)CC2(C)C1CCC2(O)C(=O)CO (centres undefined)
LC retention time: 6.12 min

CC(Cc1ccccc1)NC(C#N)c1ccccc1 (centres undefined)
LC retention time: 7.8 min

Cc1cccc(Nc2ccncc2S(=O)(=O)NC(=O)NC(C)C)c1
LC retention time: 6.02 min

CC1(C)OC2CC3C4CCC5=CC(=O)C=CC5(C)C4C(O)CC3(C)C2(C(=O)CO)O1 (centres undefined)
LC retention time: 6.98 min

CCCC1OC2CC3C4CCC5=CC(=O)C=CC5(C)C4C(O)CC3(C)C2(C(=O)CO)O1 (centres undefined)
LC retention time: 7.46 min

CC(=O)OCC(=O)C12N=C(C)OC1CC1C3CCC4=CC(=O)C=CC4(C)C3C(O)CC12C (centres undefined)
LC retention time: 7.2 min

CCCCCC(C)N (centres undefined)
LC retention time: 3.17 min

CCN(CC)C(=O)Nc1ccc(OCC(O)CNC(C)(C)C)c(C(C)=O)c1 (centres undefined)
LC retention time: 4.46 min

CC(C)NCC(O)COc1ccc(COCCOC(C)C)cc1 (centres undefined)
LC retention time: 5.03 min

CN1CCC23c4c5ccc(O)c4OC2C(O)C=CC3C1C5 (centres undefined)
LC retention time: 1.1 min

CC(C)(C)NCC(O)COc1nsnc1N1CCOCC1 (centres undefined)
LC retention time: 3.62 min

CCCC(=O)Nc1ccc(OCC(O)CNC(C)C)c(C(C)=O)c1 (centres undefined)
LC retention time: 3.71 min

C=CCc1ccccc1OCC(O)CNC(C)C (centres undefined)
LC retention time: 5.93 min

CC(C)(C)NCC(O)c1cc(O)cc(O)c1 (centres undefined)
LC retention time: 1.44 min

C#CC1(O)CCC2C3CCC4=CC(=O)CCC4=C3C=CC21CC (centres undefined)
LC retention time: 7.47 min

COCCc1ccc(OCC(O)CNC(C)C)cc1 (centres undefined)
LC retention time: 3.81 min

CC(N)C(O)c1ccccc1 (centres undefined)
LC retention time: 1.7 min

COc1ccc2c3c1OC1C(=O)CCC4(O)C(C2)N(C)CCC314 (centres undefined)
LC retention time: 2.47 min

CC(CCc1ccccc1)NCC(O)c1ccc(O)c(C(N)=O)c1 (centres undefined)
LC retention time: 5.1 min

CNC(C)CC1CCCCC1 (centres undefined)
LC retention time: 4.4 min

COC(=O)C1CC2=CC(=O)CCC2(C)C23OC2CC2(C)C(CCC24CCC(=O)O4)C13 (centres undefined)
LC retention time: 6.75 min
